According to patent US10258557B2, “Peptide for stimulating melanogenesis” (priority 2017, dated 2019):
Where a SMILES comes first, the peptide text is derived from it.

Tested on: B16F10 cells
Assay: MTT assay, cell viability
Format: cell-based, mouse
Settings: different concentrations, 24, 48 or 72 hours
Method: B16F10 is a melanoma cell line isolated from mouse skin (American Type Culture Collection, USA) and was cultured in phenol red-free Dulbecco's Modified Eagle Medium (DMEM) containing 10% (v/v) FBS and penicillin/streptomycin (100 IU/[…]) in 5% CO2 at 37° C.
The cells (2×10^3) in 100 μl complete DMEM were seeded in 96-well plates and treated with the peptide of SEQ ID NO: 1 at different concentrations. The cells treated with ddH2O was used as controls. Ten microliters of 5 mg/ml 3-(4,5-dimethyl-2-thiazolyl)-2,5-diphenyl-2H-tetrazolium bromide solution (MTT; Sigma) was added to each well and incubated at 37° C. for 3 hours. After that, 100 μl 10% SDS in 0.01N HCl was added to dissolve the MTT formazan crystals. The resultant optical density was measured by spectrophotometry at dual wavelengths, 550 and 630 nm.

C[C@H](NC(=O)[C@H](CO)NC(=O)[C@@H](N)CC(N)=O)C(=O)N[C@H](C(=O)N[C@@H](CCC(=O)O)C(=O)N[C@@H](CCCNC(=N)N)C(=O)N[C@@H](CCC(=O)O)C(=O)O)[C@@H](C)O [peptide of SEQ ID NO: 1, AsnSerAlaThrGluArgGlu] (H-NSATERE-OH)
cell viability (MTT) (FIG. 3): did not significantly affect the viability
cell viability (MTT) (FIG. 3, listed as peptide having the amino acid sequence of SEQ ID NO: 1): did not significantly affect viability
